Data published in patent publication EP0536402A1, “PIPERIDINE DERIVATIVE” (NIPPON SHINYAKU COMPANY, LIMITED, priority 1990, dated 1992).
Where a name gives a salt, the structure may show the parent alone.

Target: β -galactosidase
Assay: β-galactosidase inhibitory activity (colorimetric, O-nitrophenyl-β-D-galactopyranose substrate)
Type: biochemical, Aspergillus sp.
Conditions: acetate buffer pH 5.0, 37°C, 15 minutes
Experimental: The assay of this activity was carried out by permitting β -galactosidase to act on the substrate O-nitrophenyl-β -D-galactopyranose and quantitating O-nitrophenol, which was released on hydrolysis, colorimetrically. Thus, a mixture of 0.9 ml of 100 mM acetate buffer (pH 5.0), 0.1 ml of a solution of the test substance (dissolved in 100 mM acetate buffer at pH 5.0) and 0.5 ml of a 20 mM substrate solution was previously warmed at 37°C for […] and, then, dissolved in 10 mM acetate buffer at pH 5.0. Then, 0.5 ml of a solution of β -galactosidase was added and the reaction was conducted at 37°C for 15 minutes. The absorbance (A) at 420 nm was then measured. The absorbance (B) of a reaction mixture not containing the test substance was also measured and using the equation of % inhibition = (B - A)/B x 100 [formula] , the concentration of the test substance causing 50% inhibition of β -galactosidase activity (IC₅₀) was determined. The β -galactosidase derived from Aspergillus sp. was used. It is clear that the compound of the present invention has high β -galactosidase inhibitory activity.

SMILES | IC₅₀ (Test Example 1) [ng/mL] | IC₅₀ (Test Example 2) [ng/mL]
OC[C@H]1NC[C@H](O)[C@@H](O)[C@H]1O [1-deoxygalactostatin hydrochloride, reference compound] | 451 | 440
CN1C[C@H](O)[C@@H](O)[C@@H](O)[C@H]1CO [Example 1, N-methyl-1-deoxygalactostatin] | 15 | –
CCN1C[C@H](O)[C@@H](O)[C@@H](O)[C@H]1CO [Example 2, N-ethyl-1-deoxygalactostatin] | 82 | –
CCCN1C[C@H](O)[C@@H](O)[C@@H](O)[C@H]1CO [Example 3, N-n-propyl-1-deoxygalactostatin] | 44 | –
CC(C)CN1C[C@H](O)[C@@H](O)[C@@H](O)[C@H]1CO [Example 4, N-isobutyl-1-deoxygalactostatin] | 40 | –
CCCCCCCN1C[C@H](O)[C@@H](O)[C@@H](O)[C@H]1CO [Example 5, N-n-heptyl-1-deoxygalacto-statin] | 32 | –
CCCCCCCCCCCCN1C[C@H](O)[C@@H](O)[C@@H](O)[C@H]1CO [Example 6, N-n-dodecyl-1-deoxygalactostatin] | 23 | –
OC[C@@H]1[C@H](O)[C@H](O)[C@@H](O)CN1CCCc1ccccc1 [Example 7, N-(3-phenylpropyl)-1-deoxygalactostatin] | 88 | –
OC[C@@H]1[C@H](O)[C@H](O)[C@@H](O)CN1Cc1ccc(Cl)cc1 [Example 8, N-p-chlorobenzyl-1-deoxygalactostatin] | 180 | –
C=CCN1C[C@H](O)[C@@H](O)[C@@H](O)[C@H]1CO [Example 9, N-allyl-1-deoxygalactostatin] | 187 | –
OC[C@@H]1[C@H](O)[C@H](O)[C@@H](O)CN1CC=Cc1ccccc1 [Example 10, N-cinnamyl-1-deoxygalactostatin] | 175 | –
COCCN1C[C@H](O)[C@@H](O)[C@@H](O)[C@H]1CO [Example 11, N-methoxyethyl-1-deoxygalactostatin] | – | 59
OC[C@@H]1[C@H](O)[C@H](O)[C@@H](O)CN1Cc1ccc(-c2ccccc2)cc1 [Example 12, N-(p-phenylbenzyl)-1-deoxygalactostatin] | – | 166
CCCCCN1C[C@H](O)[C@@H](O)[C@@H](O)[C@H]1CO [Example 13, N-n-pentylnyl-1-deoxygalactostatin] | – | 113
COc1ccc(CN2C[C@H](O)[C@@H](O)[C@@H](O)[C@H]2CO)cc1 [Example 14, N-p-methoxybenzyl-1-deoxygalactostatin] | – | 391
CSc1ccc(CN2C[C@H](O)[C@@H](O)[C@@H](O)[C@H]2CO)cc1 [Example 15, N-p-methylthiobenzyl-1-deoxygalactostatin] | – | 393
OC[C@@H]1[C@H](O)[C@H](O)[C@@H](O)CN1CCc1ccccc1 [Example 16, N-phenylethyl-1-deoxygalactostatin] | – | 21
OC[C@@H](O)[C@H](O)[C@H](O)[C@@H](O)CN1C[C@H](O)[C@@H](O)[C@@H](O)[C@H]1CO [Example 17, N-(1'-deoxygalactitoyl)-1-deoxygalactostatin] | – | 49
CC(=O)Nc1ccc(CN2C[C@H](O)[C@@H](O)[C@@H](O)[C@H]2CO)cc1 [Example 18, N-(p-acetamidobenzyl)-1-deoxygalactostatin] | – | 340
OC[C@@H]1[C@H](O)[C@H](O)[C@@H](O)CN1CC1CCCCC1 [Example 20, N-cyclohexylmethyl-1-deoxygalactostatin] | – | 37
CSCCCN1C[C@H](O)[C@@H](O)[C@@H](O)[C@H]1CO [Example 21, N-(3'-methylthiopropyl)-1-deoxygalactostatin] | – | 49
COc1ccc(CN2C[C@H](O)[C@@H](O)[C@@H](O)[C@H]2CO)cc1C [Example 22, N-(3'-methyl-4'-methoxybenzyl)-1-deoxygalactostatin] | – | 359
CCCCN1C[C@H](O)[C@@H](O)[C@@H](O)[C@H]1CO [Example 23, N-n-butyl-1-deoxygalactostatin] | – | 154
O=C(O)CCCN1C[C@H](O)[C@@H](O)[C@@H](O)[C@H]1CO [Example 24, N-(3-carboxypropyl)-1-deoxygalactostatin] | – | 351
